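Briefly, cells in 96-well plates were exposed to five compound concentrations for 48 h, and endpoints were estimated by linear interpolation. GI50 marks 50% less growth. Definition used: TGI = concentration required for complete inhibition of growth.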
How the values were obtained:
Test in all cases: NCI tumour cell line growth inhibition, 48 h
HCT-15 colon = system: HCT-15 colon
SK-MEL-2 melanoma = system: SK-MEL-2 melanoma
SR leukemia = system: SR leukemia
A498 renal = system: A498 renal
PC-3 prostate = system: PC-3 prostate
NCI/ADR-RES ovarian = system: NCI/ADR-RES ovarian
SNB-75 CNS = system: SNB-75 CNS
LOX IMVI melanoma = system: LOX IMVI melanoma
HOP-62 NSCLC = system: HOP-62 NSCLC
M14 melanoma = system: M14 melanoma
MDA-MB-231 breast = system: MDA-MB-231 breast
UACC-62 melanoma = system: UACC-62 melanoma
SW-620 colon = system: SW-620 colon
SK-OV-3 ovarian = system: SK-OV-3 ovarian
UO-31 renal = system: UO-31 renal
SF-539 CNS = system: SF-539 CNS
NCI-H226 lung = system: NCI-H226 lung
KM12 colon = system: KM12 colon
OVCAR-4 ovarian = system: OVCAR-4 ovarian
U251 CNS = system: U251 CNS
UACC-257 melanoma = system: UACC-257 melanoma
K-562 leukemia = system: K-562 leukemia
RXF 393 renal = system: RXF 393 renal
CCRF-CEM leukemia = system: CCRF-CEM leukemia
SK-MEL-28 melanoma = system: SK-MEL-28 melanoma
SN12C renal = system: SN12C renal
SNB-19 CNS = system: SNB-19 CNS
SF-295 CNS = system: SF-295 CNS
HS 578T breast = system: HS 578T breast
A549 NSCLC = system: A549 NSCLC
HOP-92 NSCLC = system: HOP-92 NSCLC
NCI-H460 lung = system: NCI-H460 lung
786-0 renal = system: 786-0 renal
HL-60(TB) leukemia = system: HL-60(TB) leukemia
NCI-H23 lung = system: NCI-H23 lung
MOLT-4 leukemia = system: MOLT-4 leukemia
HCT-116 colon = system: HCT-116 colon
OVCAR-8 ovarian = system: OVCAR-8 ovarian
COLO 205 colon = system: COLO 205 colon
HCC-2998 colon = system: HCC-2998 colon
MDA-MB-435 = system: MDA-MB-435
NCI-H522 lung = system: NCI-H522 lung
HT29 colon = system: HT29 colon
RPMI-8226 leukemia = system: RPMI-8226 leukemia
MALME-3M melanoma = system: MALME-3M melanoma
CAKI-1 renal = system: CAKI-1 renal
SF-268 CNS = system: SF-268 CNS
OVCAR-3 ovarian = system: OVCAR-3 ovarian
OVCAR-5 ovarian = system: OVCAR-5 ovarian
TK-10 renal = system: TK-10 renal
BT-549 breast = system: BT-549 breast
ACHN renal = system: ACHN renal
DU-145 prostate = system: DU-145 prostate
IGROV1 ovarian = system: IGROV1 ovarian
MCF7 breast = system: MCF7 breast

## Cc1cc(C)c(C#N)c(SCC(=O)c2sc3c(C#N)c(C)cc(C)[n+]3c2[O-])n1
HCT-15 colon
  GI50: 242 nM
  TGI: > 100000 nM
SK-MEL-2 melanoma
  GI50: 624 nM
  TGI: 56200 nM
SR leukemia
  GI50: 228 nM
  TGI: > 100000 nM
A498 renal
  GI50: 135 nM
  TGI: 2070 nM
PC-3 prostate
  GI50: 436 nM
  TGI: > 100000 nM
NCI/ADR-RES ovarian
  GI50: 366 nM
  TGI: 17800 nM
SNB-75 CNS
  GI50: 336 nM
  TGI: > 27200 nM
LOX IMVI melanoma
  GI50: 750 nM
  TGI: > 100000 nM
HOP-62 NSCLC
  GI50: 4170 nM
  TGI: > 100000 nM
M14 melanoma
  GI50: 309 nM
MDA-MB-231 breast
  GI50: 890 nM
  TGI: > 100000 nM
UACC-62 melanoma
  GI50: 559 nM
  TGI: > 100000 nM
SW-620 colon
  GI50: 340 nM
  TGI: > 100000 nM
SK-OV-3 ovarian
  GI50: 678 nM
  TGI: > 100000 nM
UO-31 renal
  GI50: 1140 nM
  TGI: > 100000 nM
SF-539 CNS
  GI50: 88.1 nM
  TGI: 501 nM
NCI-H226 lung
  GI50: 1330 nM
  TGI: > 100000 nM
KM12 colon
  GI50: 401 nM
  TGI: > 100000 nM
OVCAR-4 ovarian
  GI50: 2240 nM
  TGI: > 100000 nM
U251 CNS
  GI50: 374 nM
  TGI: 98800 nM
UACC-257 melanoma
  GI50: 531 nM
  TGI: > 100000 nM
K-562 leukemia
  GI50: 376 nM
  TGI: > 100000 nM
RXF 393 renal
  GI50: 238 nM
  TGI: 777 nM
CCRF-CEM leukemia
  GI50: 333 nM
  TGI: > 100000 nM
SK-MEL-28 melanoma
  GI50: 1410 nM
  TGI: > 100000 nM
SN12C renal
  GI50: 534 nM
  TGI: > 100000 nM
SNB-19 CNS
  GI50: 504 nM
  TGI: > 100000 nM
SF-295 CNS
  GI50: 307 nM
  TGI: > 29300 nM
HS 578T breast
  GI50: 335 nM
  TGI: > 100000 nM
A549 NSCLC
  GI50: 474 nM
  TGI: > 100000 nM
HOP-92 NSCLC
  GI50: 514 nM
  TGI: > 50700 nM
NCI-H460 lung
  GI50: 362 nM
  TGI: > 100000 nM
786-0 renal
  GI50: 692 nM
  TGI: > 52600 nM
HL-60(TB) leukemia
  GI50: 277 nM
  TGI: 892 nM
NCI-H23 lung
  GI50: 697 nM
  TGI: > 100000 nM
MOLT-4 leukemia
  GI50: 596 nM
  TGI: > 100000 nM
HCT-116 colon
  GI50: 367 nM
  TGI: > 100000 nM
OVCAR-8 ovarian
  GI50: 513 nM
  TGI: > 100000 nM
COLO 205 colon
  GI50: 383 nM
  TGI: 6250 nM
HCC-2998 colon
  GI50: 867 nM
  TGI: > 100000 nM
MDA-MB-435
  GI50: 97.9 nM
  TGI: 538 nM
NCI-H522 lung
  GI50: 244 nM
  TGI: 692 nM
HT29 colon
  GI50: 329 nM
  TGI: 1760 nM
RPMI-8226 leukemia
  GI50: 491 nM
  TGI: > 100000 nM
MALME-3M melanoma
  GI50: 4240 nM
  TGI: > 100000 nM
CAKI-1 renal
  GI50: 617 nM
  TGI: > 100000 nM
SF-268 CNS
  GI50: 1130 nM
  TGI: > 100000 nM
OVCAR-3 ovarian
  GI50: 340 nM
  TGI: 1080 nM
OVCAR-5 ovarian
  GI50: 607 nM
  TGI: > 100000 nM
TK-10 renal
  GI50: 1500 nM
  TGI: > 100000 nM
BT-549 breast
  GI50: 859 nM
  TGI: > 100000 nM
ACHN renal
  GI50: 725 nM
  TGI: > 100000 nM
DU-145 prostate
  GI50: 472 nM
IGROV1 ovarian
  GI50: 1100 nM
  TGI: > 100000 nM
MCF7 breast
  GI50: 166 nM
  TGI: > 100000 nM

— PubChem BioAssay (NCI)
